Results as given in patent US20070049564A1 (Wyeth, priority 2005, published 2007).
≈ marks a conversion by molar mass, not a printed value. Where two headings read alike, the source gives them in different places.

What was measured:
Assay in all cases: MIC, broth microdilution
S. epidermidis GC 4935 = conditions: Staphylococcus epidermidis
E. coli GC 4560 = conditions: Escherichia coli
S. aureus GC 1079 = conditions: Staphylococcus aureus
E. faecalis GC 2265 = conditions: Enterococcus faecalis
E. coli GC 2233 = conditions: Escherichia coli
E. faecalis GC 2267 = conditions: Enterococcus faecalis
E. faecium GC 2243 = conditions: Enterococcus faecium
E. coli GC 2203 = conditions: Escherichia coli
E. coli GC 2270 = conditions: Escherichia coli
E. coli GC 2271 = conditions: Escherichia coli
P. aeruginosa GC 2214 = conditions: Pseudomonas aeruginosa
S. aureus GC 1131 = conditions: Staphylococcus aureus
E. coli GC 1073 = conditions: Escherichia coli
c. albicans GC 3066 = tested on: c. albicans GC 3066
S. aureus GC 6469 = conditions: Staphylococcus aureus
E. coli GC 3226 = conditions: Escherichia coli
S. aureus GC 6335 = conditions: Staphylococcus aureus
E. coli GC 6465 = conditions: Escherichia coli
S. aureus GC 6467 = conditions: Staphylococcus aureus
E. coli GC 2272 = conditions: Escherichia coli

- MIC (S. epidermidis GC 4935; GC4935, read-out: MINIMAL INHIBITORY CONCENTRATION MIC, Human Serum): 4 µg/mL (≈ 5.83 µM)
- MIC (S. epidermidis GC 4935; GC4935, read-out: MINIMAL INHIBITORY CONCENTRATION MIC, Mouse Serum): 4 µg/mL (≈ 5.83 µM)
- MIC (S. epidermidis GC 4935; GC4935, read-out: MINIMAL INHIBITORY CONCENTRATION MIC, Water): 4 µg/mL (≈ 5.83 µM)
- MIC (E. coli GC 4560; GC4560, read-out: MINIMAL INHIBITORY CONCENTRATION MIC, Human Serum): 4 µg/mL (≈ 5.83 µM)
- MIC (E. coli GC 4560; GC4560, read-out: MINIMAL INHIBITORY CONCENTRATION MIC, Mouse Serum): 4 µg/mL (≈ 5.83 µM)
- MIC (E. coli GC 4560; GC4560, read-out: MINIMAL INHIBITORY CONCENTRATION MIC, Water): 4 µg/mL (≈ 5.83 µM)
- MIC (S. aureus GC 1079; GC1079, read-out: MINIMAL INHIBITORY CONCENTRATION MIC, Human Serum): 2 µg/mL (≈ 2.92 µM)
- MIC (S. aureus GC 1079; GC1079, read-out: MINIMAL INHIBITORY CONCENTRATION MIC, Mouse Serum): 4 µg/mL (≈ 5.83 µM)
- MIC (S. aureus GC 1079; GC1079, read-out: MINIMAL INHIBITORY CONCENTRATION MIC, Water): 8 µg/mL (≈ 11.7 µM)
- MIC (E. faecalis GC 2265; GC2265, read-out: MINIMAL INHIBITORY CONCENTRATION MIC, Human Serum): 4 µg/mL (≈ 5.83 µM)
- MIC (E. faecalis GC 2265; GC2265, read-out: MINIMAL INHIBITORY CONCENTRATION MIC, Mouse Serum): 4 µg/mL (≈ 5.83 µM)
- MIC (E. faecalis GC 2265; GC2265, read-out: MINIMAL INHIBITORY CONCENTRATION MIC, Water): 4 µg/mL (≈ 5.83 µM)
- MIC (E. coli GC 2233; GC2233, read-out: MINIMAL INHIBITORY CONCENTRATION MIC, Human Serum): > 64 µg/mL
- MIC (E. coli GC 2233; GC2233, read-out: MINIMAL INHIBITORY CONCENTRATION MIC, Mouse Serum): > 64 µg/mL
- MIC (E. coli GC 2233; GC2233, read-out: MINIMAL INHIBITORY CONCENTRATION MIC, Water): > 64 µg/mL
- MIC (E. faecalis GC 2267; GC2267, read-out: MINIMAL INHIBITORY CONCENTRATION MIC, Human Serum): 4 µg/mL (≈ 5.83 µM)
- MIC (E. faecalis GC 2267; GC2267, read-out: MINIMAL INHIBITORY CONCENTRATION MIC, Mouse Serum): 4 µg/mL (≈ 5.83 µM)
- MIC (E. faecalis GC 2267; GC2267, read-out: MINIMAL INHIBITORY CONCENTRATION MIC, Water): 4 µg/mL (≈ 5.83 µM)
- MIC (E. faecium GC 2243; GC2243, read-out: MINIMAL INHIBITORY CONCENTRATION MIC, Human Serum): 8 µg/mL (≈ 11.7 µM)
- MIC (E. faecium GC 2243; GC2243, read-out: MINIMAL INHIBITORY CONCENTRATION MIC, Mouse Serum): 4 µg/mL (≈ 5.83 µM)
- MIC (E. faecium GC 2243; GC2243, read-out: MINIMAL INHIBITORY CONCENTRATION MIC, Water): 4 µg/mL (≈ 5.83 µM)
- MIC (E. coli GC 2203; GC2203, read-out: MINIMAL INHIBITORY CONCENTRATION MIC, Human Serum): > 64 µg/mL
- MIC (E. coli GC 2203; GC2203, read-out: MINIMAL INHIBITORY CONCENTRATION MIC, Mouse Serum): > 64 µg/mL
- MIC (E. coli GC 2203; GC2203, read-out: MINIMAL INHIBITORY CONCENTRATION MIC, Water): > 64 µg/mL
- MIC (E. coli GC 2270; GC2270, read-out: MINIMAL INHIBITORY CONCENTRATION MIC, Human Serum): > 64 µg/mL
- MIC (E. coli GC 2270; GC2270, read-out: MINIMAL INHIBITORY CONCENTRATION MIC, Mouse Serum): > 64 µg/mL
- MIC (E. coli GC 2270; GC2270, read-out: MINIMAL INHIBITORY CONCENTRATION MIC, Water): > 64 µg/mL
- MIC (E. coli GC 2271; GC2271, read-out: MINIMAL INHIBITORY CONCENTRATION MIC, Human Serum): > 64 µg/mL
- MIC (E. coli GC 2271; GC2271, read-out: MINIMAL INHIBITORY CONCENTRATION MIC, Mouse Serum): > 64 µg/mL
- MIC (E. coli GC 2271; GC2271, read-out: MINIMAL INHIBITORY CONCENTRATION MIC, Water): > 64 µg/mL
- MIC (P. aeruginosa GC 2214; GC2214, read-out: MINIMAL INHIBITORY CONCENTRATION MIC, Human Serum): > 64 µg/mL
- MIC (P. aeruginosa GC 2214; GC2214, read-out: MINIMAL INHIBITORY CONCENTRATION MIC, Mouse Serum): > 64 µg/mL
- MIC (P. aeruginosa GC 2214; GC2214, read-out: MINIMAL INHIBITORY CONCENTRATION MIC, Water): > 64 µg/mL
- MIC (S. aureus GC 1131; GC1131, read-out: MINIMAL INHIBITORY CONCENTRATION MIC, Human Serum): 4 µg/mL (≈ 5.83 µM)
- MIC (S. aureus GC 1131; GC1131, read-out: MINIMAL INHIBITORY CONCENTRATION MIC, Mouse Serum): 4 µg/mL (≈ 5.83 µM)
- MIC (S. aureus GC 1131; GC1131, read-out: MINIMAL INHIBITORY CONCENTRATION MIC, Water): 4 µg/mL (≈ 5.83 µM)
- MIC (E. coli GC 1073; GC1073, read-out: MINIMAL INHIBITORY CONCENTRATION MIC, Human Serum): > 64 µg/mL
- MIC (E. coli GC 1073; GC1073, read-out: MINIMAL INHIBITORY CONCENTRATION MIC, Mouse Serum): > 64 µg/mL
- MIC (E. coli GC 1073; GC1073, read-out: MINIMAL INHIBITORY CONCENTRATION MIC, Water): > 64 µg/mL
- MIC (c. albicans GC 3066; Candida albicans, GC3066, read-out: MINIMAL INHIBITORY CONCENTRATION MIC): > 64 µg/mL
- MINIMAL INHIBITORY CONCENTRATION MIC (c. albicans GC 3066; Human Serum): >64 UG/ML
- MINIMAL INHIBITORY CONCENTRATION MIC (c. albicans GC 3066; Mouse Serum): >64 UG/ML
- MIC (S. aureus GC 6469; GC6469, read-out: MINIMAL INHIBITORY CONCENTRATION MIC, Human Serum): 4 µg/mL (≈ 5.83 µM)
- MIC (S. aureus GC 6469; GC6469, read-out: MINIMAL INHIBITORY CONCENTRATION MIC, Mouse Serum): 4 µg/mL (≈ 5.83 µM)
- MIC (S. aureus GC 6469; GC6469, read-out: MINIMAL INHIBITORY CONCENTRATION MIC, Water): 4 µg/mL (≈ 5.83 µM)
- MIC (E. coli GC 3226; GC3226, read-out: MINIMAL INHIBITORY CONCENTRATION MIC, Human Serum): > 64 µg/mL
- MIC (E. coli GC 3226; GC3226, read-out: MINIMAL INHIBITORY CONCENTRATION MIC, Mouse Serum): > 64 µg/mL
- MIC (E. coli GC 3226; GC3226, read-out: MINIMAL INHIBITORY CONCENTRATION MIC, Water): > 64 µg/mL
- MIC (S. aureus GC 6335; GC6335, read-out: MINIMAL INHIBITORY CONCENTRATION MIC, Human Serum): 4 µg/mL (≈ 5.83 µM)
- MIC (S. aureus GC 6335; GC6335, read-out: MINIMAL INHIBITORY CONCENTRATION MIC, Mouse Serum): 4 µg/mL (≈ 5.83 µM)
- MIC (S. aureus GC 6335; GC6335, read-out: MINIMAL INHIBITORY CONCENTRATION MIC, Water): 4 µg/mL (≈ 5.83 µM)
- MIC (E. coli GC 6465; GC6465, read-out: MINIMAL INHIBITORY CONCENTRATION MIC, Human Serum): > 64 µg/mL
- MIC (E. coli GC 6465; GC6465, read-out: MINIMAL INHIBITORY CONCENTRATION MIC, Mouse Serum): 32 µg/mL (≈ 46.7 µM)
- MIC (E. coli GC 6465; GC6465, read-out: MINIMAL INHIBITORY CONCENTRATION MIC, Water): > 64 µg/mL
- MIC (S. aureus GC 6467; GC6467, read-out: MINIMAL INHIBITORY CONCENTRATION MIC, Human Serum): 4 µg/mL (≈ 5.83 µM)
- MIC (S. aureus GC 6467; GC6467, read-out: MINIMAL INHIBITORY CONCENTRATION MIC, Mouse Serum): 4 µg/mL (≈ 5.83 µM)
- MIC (S. aureus GC 6467; GC6467, read-out: MINIMAL INHIBITORY CONCENTRATION MIC, Water): 4 µg/mL (≈ 5.83 µM)
- MIC (E. coli GC 2272; GC2272, read-out: MINIMAL INHIBITORY CONCENTRATION MIC, Human Serum): > 64 µg/mL
- MIC (E. coli GC 2272; GC2272, read-out: MINIMAL INHIBITORY CONCENTRATION MIC, Mouse Serum): 64 µg/mL (≈ 93.3 µM)
- MIC (E. coli GC 2272; GC2272, read-out: MINIMAL INHIBITORY CONCENTRATION MIC, Water): > 64 µg/mL
SMILES: CC(C)COC(=O)N(CC(=O)Nc1cc(N(C)C)c2c(c1O)C(=O)C1=C(O)[C@]3(O)C(=O)C(C(N)=O)=C(O)[C@@H](N(C)C)[C@@H]3C[C@@H]1C2)C(C)(C)C [Example 59, isobutyl 2-{[(5aR,6aS,7S,10aS)-9-(aminocarbonyl)-4,7-bis(dimethylamino)-1,8,10a,11-tetrahydroxy-10,12-dioxo-5,5a,6,6a,7,10,10a,12-octahydrotetracen-2-yl]amino}-2-oxoethyl(tert-butyl)carbamate]
